Results published in PubChem BioAssay AID1671292.

Molecular target: Homeodomain-interacting protein kinase 1 (Homo sapiens) (UniProt Q86Z02)
Assay: inhibition of human HIPK1 (Myak) activity – biochemical, Z'-LYTE, FRET, protease-coupled, direct format, dose response (AID 1671292)
Details: Z'-LYTE FRET kinase assay, recombinant HIPK1

Chain of Homeodomain-interacting protein kinase 1 (Homo sapiens) (Q86Z02 whole entry, looked up): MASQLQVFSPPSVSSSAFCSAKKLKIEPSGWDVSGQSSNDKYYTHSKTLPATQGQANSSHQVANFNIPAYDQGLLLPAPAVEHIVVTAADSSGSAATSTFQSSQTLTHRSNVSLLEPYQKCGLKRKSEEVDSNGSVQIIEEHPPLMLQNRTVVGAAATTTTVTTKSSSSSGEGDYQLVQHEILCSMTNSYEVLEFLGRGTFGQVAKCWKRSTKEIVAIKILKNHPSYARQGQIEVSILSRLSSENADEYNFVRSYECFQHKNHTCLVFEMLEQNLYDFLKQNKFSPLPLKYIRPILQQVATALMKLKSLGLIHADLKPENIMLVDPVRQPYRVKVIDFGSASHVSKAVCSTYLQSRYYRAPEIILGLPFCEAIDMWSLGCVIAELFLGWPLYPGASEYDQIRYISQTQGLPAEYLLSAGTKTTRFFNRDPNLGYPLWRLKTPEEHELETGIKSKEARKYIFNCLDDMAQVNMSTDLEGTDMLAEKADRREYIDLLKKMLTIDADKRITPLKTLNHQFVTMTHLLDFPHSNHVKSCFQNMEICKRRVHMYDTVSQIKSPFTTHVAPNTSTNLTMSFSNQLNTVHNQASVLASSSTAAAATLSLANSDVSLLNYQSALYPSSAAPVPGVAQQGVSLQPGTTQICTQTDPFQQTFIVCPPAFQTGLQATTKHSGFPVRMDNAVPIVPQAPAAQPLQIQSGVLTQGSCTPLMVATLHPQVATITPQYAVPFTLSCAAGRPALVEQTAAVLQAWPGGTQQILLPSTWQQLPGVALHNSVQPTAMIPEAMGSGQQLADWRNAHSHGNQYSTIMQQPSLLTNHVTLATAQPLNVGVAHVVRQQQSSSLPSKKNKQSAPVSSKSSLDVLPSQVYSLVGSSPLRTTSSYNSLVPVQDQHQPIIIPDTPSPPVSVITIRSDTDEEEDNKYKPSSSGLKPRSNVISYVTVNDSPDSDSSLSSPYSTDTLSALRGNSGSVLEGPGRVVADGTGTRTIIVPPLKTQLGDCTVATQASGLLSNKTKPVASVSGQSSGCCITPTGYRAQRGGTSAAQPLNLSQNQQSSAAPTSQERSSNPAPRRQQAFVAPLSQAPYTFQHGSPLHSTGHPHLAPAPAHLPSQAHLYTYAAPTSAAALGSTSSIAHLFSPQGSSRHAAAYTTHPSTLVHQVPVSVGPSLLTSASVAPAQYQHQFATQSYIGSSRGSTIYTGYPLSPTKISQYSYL

Work on Brc1c(Br)c(Br)c2n[nH]nc2c1Br yielded an IC50 of 4.47 µM.
